Assay results published in publication PMC12428505, “A Bifunctional SARS-CoV-2 Entry Inhibitor Targeting the Host Protease TMPRSS2 and Viral Spike Protein HR1 Region” (International Journal of Molecular Sciences, 2025).
*1 amine or outer side, *2 acyl side, *3 side chain or, on linkers, in order; H or OH if unused. Where a SMILES comes first, the peptide text is derived from it. [ ]: non-standard residue; d: D form. The star is where a group is joined. PEG24 = NCCOCCOCCOCCOCCOCCOCCOCCOCCOCCOCCOCCOCCOCCOCCOCCOCCOCCOCCOCCOCCOCCOCCOCCOCCC(=O)O; X1 = N=C(N)Nc1ccc(C(=O)Oc2ccc(CC(=O)OCC(=O)*)cc2)cc1; X2 = CN(Cc1cn(CC(=O)[*:2])nn1)[*:1]; X3 = O=C(Cn1cc(CN[*:1])nn1)[*:2]; PEG4 = NCCOCCOCCOCCOCCC(=O)O

The molecules below were run on wild-type SARS-CoV-2 PsV (assay: microbe, parasite or virus in culture). Conditions: Severe acute respiratory syndrome coronavirus 2, Caco-2.
`CN(C)C(=O)COC(=O)Cc1ccc(OC(=O)c2ccc(NC(=N)N)cc2)cc1` [Camostat] was tested, and the IC50 was 4.6 ± 2.32 µM.

These molecules were tested on wild-type SARS-CoV-2 PsV (assay: not given). Conditions: 48 h.
“Ac-DKEWILQKIYELMRILDELGHAEASMRVEDLIYEFMK-NH2 [LCB1T, reference compound]” showed an IC50 of 440 ± 40 nM.
Work on `CC[C@H](C)[C@H](NC(=O)[C@H](CCCNC(=N)N)NC(=O)[C@H](CCSC)NC(=O)[C@H](CC(C)C)NC(=O)[C@H](CCC(=O)O)NC(=O)[C@H](Cc1ccc(O)cc1)NC(=O)[C@@H](NC(=O)[C@H](CCCCN)NC(=O)[C@H](CCC(N)=O)NC(=O)[C@H](CC(C)C)NC(=O)[C@@H](NC(=O)[C@H](Cc1c[nH]c2ccccc12)NC(=O)[C@H](CCC(=O)O)NC(=O)[C@H](CCCCN)NC(=O)[C@H](CC(=O)O)NC(=O)CCOCCOCCOCCOCCOCCOCCOCCOCCOCCOCCOCCOCCOCCOCCOCCOCCOCCOCCOCCOCCOCCOCCOCCOCCNC(=O)Cn1cc(CNC(=O)COC(=O)Cc2ccc(OC(=O)c3ccc(NC(=N)N)cc3)cc2)nn1)[C@@H](C)CC)[C@@H](C)CC)C(=O)N[C@@H](CC(C)C)C(=O)N[C@@H](CC(=O)O)C(=O)N[C@@H](CCC(=O)O)C(=O)N[C@@H](CC(C)C)C(=O)NCC(=O)N[C@@H](Cc1c[nH]cn1)C(=O)N[C@@H](C)C(=O)N[C@@H](CCC(=O)O)C(=O)N[C@@H](C)C(=O)N[C@@H](CO)C(=O)N[C@@H](CCSC)C(=O)N[C@@H](CCCNC(=N)N)C(=O)N[C@H](C(=O)N[C@@H](CCC(=O)O)C(=O)N[C@@H](CC(=O)O)C(=O)N[C@@H](CC(C)C)C(=O)N[C@H](C(=O)N[C@@H](Cc1ccc(O)cc1)C(=O)N[C@@H](CCC(=O)O)C(=O)N[C@@H](Cc1ccccc1)C(=O)N[C@@H](CCSC)C(=O)N[C@@H](CCCCN)C(N)=O)[C@@H](C)CC)C(C)C` [LP24Z] (X1-[X3][PEG24]DKEWILQKIYELMRILDELGHAEASMRVEDLIYEFMK-NH2) yielded an IC50 of 330 ± 10 nM.
In the case of `CC[C@H](C)[C@H](NC(=O)[C@H](CCCNC(=N)N)NC(=O)[C@H](CCSC)NC(=O)[C@H](CC(C)C)NC(=O)[C@H](CCC(=O)O)NC(=O)[C@H](Cc1ccc(O)cc1)NC(=O)[C@@H](NC(=O)[C@H](CCCCN)NC(=O)[C@H](CCC(N)=O)NC(=O)[C@H](CC(C)C)NC(=O)[C@@H](NC(=O)[C@H](Cc1c[nH]c2ccccc12)NC(=O)[C@H](CCC(=O)O)NC(=O)[C@H](CCCCN)NC(=O)[C@H](CC(=O)O)NC(=O)CCOCCOCCOCCOCCOCCOCCOCCOCCOCCOCCOCCOCCOCCOCCOCCOCCOCCOCCOCCOCCOCCOCCOCCOCCNC(=O)Cn1cc(CN(C)C(=O)COC(=O)Cc2ccc(OC(=O)c3ccc(NC(=N)N)cc3)cc2)nn1)[C@@H](C)CC)[C@@H](C)CC)C(=O)N[C@@H](CC(C)C)C(=O)N[C@@H](CC(=O)O)C(=O)N[C@@H](CCC(=O)O)C(=O)N[C@@H](CC(C)C)C(=O)NCC(=O)N[C@@H](Cc1c[nH]cn1)C(=O)N[C@@H](C)C(=O)N[C@@H](CCC(=O)O)C(=O)N[C@@H](C)C(=O)N[C@@H](CO)C(=O)N[C@@H](CCSC)C(=O)N[C@@H](CCCNC(=N)N)C(=O)N[C@H](C(=O)N[C@@H](CCC(=O)O)C(=O)N[C@@H](CC(=O)O)C(=O)N[C@@H](CC(C)C)C(=O)N[C@H](C(=O)N[C@@H](Cc1ccc(O)cc1)C(=O)N[C@@H](CCC(=O)O)C(=O)N[C@@H](Cc1ccccc1)C(=O)N[C@@H](CCSC)C(=O)N[C@@H](CCCCN)C(N)=O)[C@@H](C)CC)C(C)C` [LP24X] (X1-[X2][PEG24]DKEWILQKIYELMRILDELGHAEASMRVEDLIYEFMK-NH2), the IC50 is reported as 320 ± 30 nM.
`CC[C@H](C)[C@H](NC(=O)[C@H](CCCNC(=N)N)NC(=O)[C@H](CCSC)NC(=O)[C@H](CC(C)C)NC(=O)[C@H](CCC(=O)O)NC(=O)[C@H](Cc1ccc(O)cc1)NC(=O)[C@@H](NC(=O)[C@H](CCCCN)NC(=O)[C@H](CCC(N)=O)NC(=O)[C@H](CC(C)C)NC(=O)[C@@H](NC(=O)[C@H](Cc1c[nH]c2ccccc12)NC(=O)[C@H](CCC(=O)O)NC(=O)[C@H](CCCCN)NC(=O)[C@H](CC(=O)O)NC(=O)CCOCCOCCOCCOCCNC(=O)Cn1cc(CNC(=O)COC(=O)Cc2ccc(OC(=O)c3ccc(NC(=N)N)cc3)cc2)nn1)[C@@H](C)CC)[C@@H](C)CC)C(=O)N[C@@H](CC(C)C)C(=O)N[C@@H](CC(=O)O)C(=O)N[C@@H](CCC(=O)O)C(=O)N[C@@H](CC(C)C)C(=O)NCC(=O)N[C@@H](Cc1c[nH]cn1)C(=O)N[C@@H](C)C(=O)N[C@@H](CCC(=O)O)C(=O)N[C@@H](C)C(=O)N[C@@H](CO)C(=O)N[C@@H](CCSC)C(=O)N[C@@H](CCCNC(=N)N)C(=O)N[C@H](C(=O)N[C@@H](CCC(=O)O)C(=O)N[C@@H](CC(=O)O)C(=O)N[C@@H](CC(C)C)C(=O)N[C@H](C(=O)N[C@@H](Cc1ccc(O)cc1)C(=O)N[C@@H](CCC(=O)O)C(=O)N[C@@H](Cc1ccccc1)C(=O)N[C@@H](CCSC)C(=O)N[C@@H](CCCCN)C(N)=O)[C@@H](C)CC)C(C)C` [LP4Z] (X1-[X3][PEG4]DKEWILQKIYELMRILDELGHAEASMRVEDLIYEFMK-NH2) showed an IC50 of 450 ± 200 nM.
In the case of `CC[C@H](C)[C@H](NC(=O)[C@H](CCCNC(=N)N)NC(=O)[C@H](CCSC)NC(=O)[C@H](CC(C)C)NC(=O)[C@H](CCC(=O)O)NC(=O)[C@H](Cc1ccc(O)cc1)NC(=O)[C@@H](NC(=O)[C@H](CCCCN)NC(=O)[C@H](CCC(N)=O)NC(=O)[C@H](CC(C)C)NC(=O)[C@@H](NC(=O)[C@H](Cc1c[nH]c2ccccc12)NC(=O)[C@H](CCC(=O)O)NC(=O)[C@H](CCCCN)NC(=O)[C@H](CC(=O)O)NC(=O)CCOCCOCCOCCOCCNC(=O)Cn1cc(CN(C)C(=O)COC(=O)Cc2ccc(OC(=O)c3ccc(NC(=N)N)cc3)cc2)nn1)[C@@H](C)CC)[C@@H](C)CC)C(=O)N[C@@H](CC(C)C)C(=O)N[C@@H](CC(=O)O)C(=O)N[C@@H](CCC(=O)O)C(=O)N[C@@H](CC(C)C)C(=O)NCC(=O)N[C@@H](Cc1c[nH]cn1)C(=O)N[C@@H](C)C(=O)N[C@@H](CCC(=O)O)C(=O)N[C@@H](C)C(=O)N[C@@H](CO)C(=O)N[C@@H](CCSC)C(=O)N[C@@H](CCCNC(=N)N)C(=O)N[C@H](C(=O)N[C@@H](CCC(=O)O)C(=O)N[C@@H](CC(=O)O)C(=O)N[C@@H](CC(C)C)C(=O)N[C@H](C(=O)N[C@@H](Cc1ccc(O)cc1)C(=O)N[C@@H](CCC(=O)O)C(=O)N[C@@H](Cc1ccccc1)C(=O)N[C@@H](CCSC)C(=O)N[C@@H](CCCCN)C(N)=O)[C@@H](C)CC)C(C)C` [LP4X] (X1-[X2][PEG4]DKEWILQKIYELMRILDELGHAEASMRVEDLIYEFMK-NH2), the IC50 is reported as 400 ± 60 nM.
